{
  "source": "patent US8889902B2",
  "about": "“Acetylsalicylic acid salts” (priority 2009, dated 2014)",
  "assay_type_in_all_cases": "in vivo, Wistar rats",
  "key": {"[1]": {"tested_on": "hyperthermia induced by intramuscular injection of pyrogenal", "test": "Preventive antipyretic activity, pyrogenal hyperthermia", "details": "100 mg/kg p.o. 1 h before pyrogenal", "description": "Experiments were conducted on 48 Wistar rats with body mass 165-182 g by intramuscular injection of pyrogenal (Gamalei State Research Institution, Moscow, Russia) in 100 μg dose (Shwarz G Y, Syubaev R D, Vedomosti NCEG lekarstvennyh sredstv MZ RF 2000; 1:44-50 (Rus). Test substances were given p.o. one hour before the pyrogenal injection. Rectal temperature was measured by electric thermometer TERMO before injection of pyrogenal (baseline) and for 3 hours after injection. The antipyretic activity was evaluated by the reduction of hyperthermic reaction 2 hours after injection of pyrogenal that correlated well with the published data (10) about the peak of reaction (Table 6). Ambient temperature was kept at 20-21° C."}, "[2]": {"tested_on": "serum lipid levels (C, HDL, LDL, TG)", "test": "Acute hyperlipidemia model (Triton WR1339)", "details": "TR 250 mg/kg, serum 24 h", "description": "Male Wistar rats with body mass of 250-270 g were used. Animals were held in groups of 6-8 in climatized rooms at 22±1° C., relative humidity 60±5%, and 12/12-hour light/dark cycle with free access to water and feed. […] The solution of test substances or water was introduced to control and TR group animals p.o. one hour before and 20 hours after the introduction of TR as described below.\nBlood for biochemical analysis was collected on the next day (24 hours after the injection of TR) by heart punction under ether narcosis. Serum was separated by centrifugation and analyzed for total cholesterol, HDL, LDL and TG levels by commercial kits."}, "[3]": {"tested_on": "FeCl3 induced carotid artery thrombosis", "test": "FeCl3 induced carotid artery thrombosis, time till occlusion", "details": "25 mg/kg p.o.; for Time till occlusion: single dose 2 h before; for Time till occlusion, %: single dose, control = 100", "description": "We chose an experimental thrombosis model based on rat arterial thrombosis induced by FeCl3 (Kurz K et al, Thromb Res 1990, 60:269-280. Wang X, Xu L, Thromb Res 2005,115:95-100). Tissue damage initiated by iron-mediated chemical oxidation predisposes the injured area to platelet adherence and aggregation followed by coagulation activation and fibrin deposition. Male Wistar rats with mass 350-420 g were used in experiments. Animals were kept in groups of 7-8 in adequate cages in climatized room at 22±1° C., relative humidity 60±5% and 12/12-hour light/darkness cycle with free access to feed and water. All experiments were carried out in accordance with the European Community Council's Directive of 24 Nov. 1986 (86/609/EEC) relative to experimental animal care. All efforts were made to minimize animal suffering and to reduce the number of animals used. Rats were randomly divided into various experimental groups, each consisting of not less than seven animals. The vehicle or test compound MD (25 mg/kg), NA (25 mg/kg), MASA (10 mg/kg), ASA (5 mg/kg) and combination MD+NA (25+25 mg/kg), MASA+NA (10+25 mg/kg) and ASA+NA (5+25 mg/kg) was administered by oral route 2 h before the initiation of thrombosis. Parallel experiments were conducted to compare the effects of a single dose of test substance (given 2 h before the initiation of thrombosis) and repeated doses (once daily for 3 days). […] Rats were anaesthetized with pentobarbital sodium (50 mg/kg, i.p. and 10 mg/kg/h) and were placed on a heat controlled operating table throughout the experiment to maintain a body temperature of 37° C. One of the carotid arteries was exposed by cervical incision, separated from the adherent tissue, vagus nerve, and a flow probe (electromagnetic blood flow meter MFV 1200, Nicon Kohden, Japan) was placed on the exposed segment of common carotid artery to record the blood flow. After a stabilization period of 15 min, thrombosis was induced by topically applying (in contact with the adventitial surface of vessel) two pieces (2×1 mm) of Whatman filter paper, soaked in 15% solution of FeCl3. Thrombosis time of carotid artery was recorded as time taken for the complete cessation of the blood flow and has been reported as time till occlusion (TTO)."}, "[4]": {"tested_on": "serum lipid levels (C, HDL, LDL, TG)", "test": "Chronic hyperlipidemia model (Triton WR1339, 3 weeks)", "details": "NA 50 mg/kg/d p.o.; TR 250 mg/kg 3x/week", "description": "Male Wistar rats were used. Animals were held in climatized rooms 22±1° C. with relative humidity 60±5%, and 12/12-hour light/dark cycle with free access to water and feed. Initial weight of animals was 220-240 g. Experimental chronical (subchronical) hyperlipidemia/hypercholesterolemia was induced by TR using the method described by Levine and Saltzman (Levine S, Saltzman A, J Pharmacol Toxicol Meth 2007; 55:224-226). Animals received 250 mg/kg of TR solution via tail vein three times a week for 3 weeks. Solutions of test substances or water for Control and TR group was introduced p.o. once a day one hour before injection of TR solution or taking a blood sample according to the following scheme:\nBlood for biochemical analyses was obtained after 1, 2 and 3 weeks (on the next day after the TR injection) by cardiac punction under ether narcosis. Serum was separated by centrifugation and analyzed for total C, HDL, LDL and TG levels by commercial kits. Statistics."}},
  "data": [
    {"compound": "C[N+](C)(C)NCCC(=O)[O-].O.O", "note": "[MD, 3-(Trimethylammonioamino)propanoate dihydrate]", "values": [
      {"measurement": "Rectal temperature 120 minutes after injection", "setting": "[1]", "value": "36.2 ± 0.16", "unit": "°C"},
      {"measurement": "C", "setting": "[2]; 150 mg/kg p.o.", "value": "345.6 ± 34.1", "unit": "mg/dL"},
      {"measurement": "HDL", "setting": "[2]; 150 mg/kg p.o.", "value": "63.8 ± 9.3", "unit": "mg/dL"},
      {"measurement": "LDL", "setting": "[2]; 150 mg/kg p.o.", "value": "273.9 ± 31.6", "unit": "mg/dL"},
      {"measurement": "TG", "setting": "[2]; 150 mg/kg p.o.", "value": "1022 ± 80.7", "unit": "mg/dL"},
      {"measurement": "Time till occlusion", "setting": "[3]", "value": "29.8 ± 2.29", "unit": "min"},
      {"measurement": "Time till occlusion, %", "setting": "[3]", "value": 122, "unit": "%"}
    ]},
    {"compound": "O=C(O)c1cccnc1", "note": "[NA, nicotinic acid]", "values": [
      {"measurement": "HDL after 1 week (HDL1)", "setting": "[4]", "value": "111.3 ± 9.1", "unit": "mg/dL"},
      {"measurement": "HDL after 2 weeks (HDL2)", "setting": "[4]", "value": "144.7 ± 13.5", "unit": "mg/dL"},
      {"measurement": "HDL after 3 weeks (HDL3)", "setting": "[4]", "value": "127.3 ± 10.9", "unit": "mg/dL"},
      {"measurement": "LDL after 1 week (LDL1)", "setting": "[4]", "value": "216.3 ± 14.0", "unit": "mg/dL"},
      {"measurement": "LDL after 2 weeks (LDL2)", "setting": "[4]", "value": "250.3 ± 20.6", "unit": "mg/dL"},
      {"measurement": "LDL after 3 weeks (LDL3)", "setting": "[4]", "value": "265.1 ± 18.4", "unit": "mg/dL"},
      {"measurement": "TG after 1 week (TG1)", "setting": "[4]", "value": "734 ± 81.6", "unit": "mg/dL"},
      {"measurement": "TG after 2 weeks (TG2)", "setting": "[4]", "value": "860 ± 73.8", "unit": "mg/dL"},
      {"measurement": "TG after 3 weeks (TG3)", "setting": "[4]", "value": "828 ± 44.7", "unit": "mg/dL"},
      {"measurement": "Total C after 1 week (C1)", "setting": "[4]", "value": "345 ± 15.7", "unit": "mg/dL"},
      {"measurement": "Total C after 2 weeks (C2)", "setting": "[4]", "value": "401.1 ± 25.1", "unit": "mg/dL"},
      {"measurement": "Total C after 3 weeks (C3)", "setting": "[4]", "value": "405.5 ± 25.9", "unit": "mg/dL"},
      {"measurement": "C", "setting": "[2]; 50 mg/kg p.o.", "value": "327.5 ± 38.4", "unit": "mg/dL"},
      {"measurement": "HDL", "setting": "[2]; 50 mg/kg p.o.", "value": "66.5 ± 14.6", "unit": "mg/dL"},
      {"measurement": "LDL", "setting": "[2]; 50 mg/kg p.o.", "value": "246.3 ± 32.5", "unit": "mg/dL"},
      {"measurement": "TG", "setting": "[2]; 50 mg/kg p.o.", "value": "591 ± 43.3", "unit": "mg/dL"},
      {"measurement": "Time till occlusion", "setting": "[3]", "value": "30.3 ± 3.12", "unit": "min"},
      {"measurement": "Time till occlusion, %", "setting": "[3]", "value": 124, "unit": "%"}
    ]}
  ]
}
